Source: a melting point compilation (Tetko et al.; mined from patent text by program, amines drawn as free bases though some values may be those of a salt)

| melting point [°C] | SMILES |
| --- | --- |
| 94 to 95 | CCOC(=O)C(C(=O)OCC)c1c(Br)cnc2c([N+](=O)[O-])cccc12 |
| 144 | CCCn1nc(CC)c(C(=O)OC)c1Cc1ccc(-c2ccccc2S(N)(=O)=O)cc1 |
| 97 to 98 | CCCCCCC(=O)c1ccc2c([N+](=O)[O-])c(O)c(O)cc2c1 |
| 169 to 171 | CCCOCCN(CC)c1ccc(-c2ccc3c(c2)C=C(C(=O)O)CCN3C=O)cc1 |
| 123 to 125 | Cc1cc(C(=O)N(C)CCO)ncc1C(c1cc(F)ccc1F)S(=O)(=O)c1ccc(F)cc1 (stereo not given) |
| 115 to 118 | COC(=O)c1cc(Oc2ccc([N+](=O)[O-])cc2)ccc1OC |
| 74 to 75 | CCCCCC#CCOc1ccc2ccc(=O)oc2c1 |
| 147 to 148 | CCC(C)(C)c1ccc2nc(-c3ccc([N+](=O)[O-])cc3)oc2c1 |
| 134 to 137 | COc1ccc(Cn2nnc(-c3ccc(Cl)cc3Cl)c2N)cc1 |
| 111 to 113 | CCc1c(-c2ccc(OCc3ccccc3)cc2)c2cc(COC)c3cccc1n32 |
| > 350 | NC(=O)Nc1ccc(/C=C/C(=O)O)cc1 |
| 124 to 125 | CCNc1nc(C)c(-c2ccnc(Nc3cccc(S(=O)(=O)NCCO)c3)n2)s1 |
| 254 to 256 | CCN(C(=O)Cn1c(=O)n(C)c2nc(-c3ccccc3)ncc21)c1ccc(O)cc1 |
| 243 to 245 | CCCCc1ccc(NC(=O)Nc2ccc(S(N)(=O)=O)cc2)cc1 |
| 169 | CC(=O)Nc1ccc(Oc2ccc(S(C)(=O)=O)cc2C)cc1 |
| 196 | CCc1ccc(NC(=O)Nc2ccc(Oc3ccnc(OC)c3)cc2)cc1 |
| 165 to 166 | N#CCCNC(=O)c1cccc(-c2cccc3nn(Cc4ccc(F)c(Cl)c4)cc23)c1 |
| 161 to 162 | CC1(C)CCC(C)(C)c2cc(NC(=O)c3ccc(CO)cc3)ccc21 |

| melting point [°C] | SMILES |
| --- | --- |
| 51 | COC(=O)CSc1cccc(CNC(=O)C2Cc3ccccc3N2S(=O)(=O)c2ccc(-c3cccc(C(F)(F)F)c3)cc2)c1 (stereo not given) |
| 83 to 85 | CCOC(=O)N1C=CC(c2ccc(F)cc2)C(C(=O)OC)=C1 (stereo not given) |
| 169 to 170 | CCn1nnc(NC(=O)C(c2ccccc2)c2ccccc2)n1 |
| 142 to 145 | CCC(C(=O)c1ccc(C(C)C)c(OS(N)(=O)=O)c1C(C)C)c1ccccc1 (stereo not given) |
| 157 to 158 | CC(C)(OCc1nn(Cc2ccccc2)c2ccccc12)C(=O)NCC(=O)O |
| 95 to 96 | Cc1ccccc1Nc1nc(NCCc2ccccc2)nc2ccccc12 |
| 148 to 149 | COc1cccc(/C=C/C(=O)Nc2cccc(NC(=N)c3ccccc3)c2)c1 |
| 227 to 229 | CCCCC(=O)c1cc(C(=O)O)c2cc(Cc3ccc(F)cc3)cnc2c1O |
| 232 | CCN(C(C)=O)c1ccc2c(c1)Cc1c-2[nH]c2ccccc12 |
| 118 to 120 | CC(C)(O)CCOc1c(-c2ccc(S(C)(=O)=O)cc2)cnn(-c2ccc(Cl)c(Cl)c2)c1=O |
| 198 to 200 | CC(=O)NCc1ccc(CN2CCN(c3ccc(N)cc3)CC2)cc1 |
| 124 to 128 | CC1CCN(C(=O)C(Cc2cc3c(N)nccc3s2)NS(=O)(=O)c2ccc(COC3CCOCC3)cc2)CC1 (stereo not given) |
| 166 to 167 | Cc1cc(NC(=O)COc2ccccc2)cc(C)c1S(=O)(=O)C[N+](=O)[O-] |
| 55.9 to 61.5 | CC(O)c1ccc(-c2ccnc(Nc3ccc4c(c3)OCCO4)c2)cc1 (stereo not given) |
| 262 to 264 | COc1ccc(-c2nc(NC(C)=O)sc2-c2ccnc(NC(C)=O)c2)cc1 |
| 191 to 193 | CN1C(=O)C(C(=O)Nc2ccc(Cl)c(Cl)c2)Sc2ccccc21 (stereo not given) |
| 201 to 204 | N#Cc1ccc(N(Cc2ccc(OS(N)(=O)=O)c(Cl)c2)n2cnnc2)cc1-c1ccccc1 |
| 205 to 207 | O=C(NCC(F)(F)F)c1cccc(CN2CCN(c3ccc(NC(=O)c4ccccc4-c4ccc(C(F)(F)F)cc4)cc3)CC2)c1 |

The next lines start with the compound.

| SMILES | melting point [°C] |
| --- | --- |
| COc1ccc(-c2cnc(-c3ccc(Cl)cc3)nc2-c2ccc(OC)cc2)cc1 | 151 to 153 |
| COc1ccc(/C=C/C(=O)N2CC(CCl)c3c2cc(O)c2ncccc32)cc1 (stereo not given) | 208 to 211 |
| O=c1c2c(Cc3ccsc3)n[nH]c2c2cccnc2n1-c1cccc(OC(F)(F)F)c1 | 247 to 251 |
| Cc1[nH]nc(C(C)C)c1Oc1cc(C#N)cc(C#N)c1 | 142 to 144 |
| CC1(C)CCCC=C1c1ccc(C(=O)O)cc1 | 181 |
| CN1CCC(Cn2sc3cc(Cl)ccc3c2=O)CC1 | 86 |
| COC(=O)c1c(C)nc2c(c1N(C)C)c1ccccc1n2C | 106 to 108 |
| CC(C)Sc1c(C(=O)O)sc2cccc(Cl)c12 | 107 to 109 |
| Cn1c2ncccc2c(=O)n2nccc12 | 249 |
| Cc1cc(C)c(NC(=O)NC2CC2c2ccc(-c3ncn(-c4ccc(OC(F)(F)F)cc4)n3)cc2)c(C)c1 (stereo not given) | 254 to 256 |
| NNc1nc(C(F)(F)F)nc(-c2ccccc2)c1-c1ccccc1 | 182 to 186 |
| COc1ccc(N2CCN(c3ccc(OC)nc3-c3ccc(C(C)(C)O)cc3)CC2)cc1 | 138 to 144 |
| Cn1c2cc(Cl)ccc2c2oc(C(=O)Cl)cc21 | 154 to 156 |
| OCC1CC2CCC13CN(CC1CC1)CCC31c3cccc(O)c3OC21 (stereo not given) | 187 to 190 |
| COc1ccc(S(=O)(=O)c2cccs2)c(Cl)c1Cl | 190 |
| Fc1ccc(-c2cc(Br)sc2-c2ccc(F)cc2)cc1 | 91 to 93 |
| CC(=O)OC1CSC(Oc2ccc(-c3ccsc3)nc2)C(OC(C)=O)C1OC(C)=O (stereo not given) | 158 |
| O=C(c1ccc(-c2ncn[nH]2)cc1)N1Cc2cccn2Cc2ccccc21 | 225 to 227 |
| CCOC(=O)C(=CNc1cccc(C)n1)C(=O)OCC | 102 to 104 |
| CCN1CC(=O)N(c2cc(Cl)ccc2C)C1=S | 152 to 154 |
| CN(CC1CO1)S(=O)(=O)C(F)(F)C(F)(F)C(F)(F)C(F)(F)S(=O)(=O)N(C)CC1CO1 (stereo not given) | 77 to 79 |
| NC(=O)N(O)CC=Cc1ccoc1 | 136 to 137 |

| SMILES | melting point [°C] |
| --- | --- |
| COc1cccc(-c2cc(F)cc3c2OC(CN)C3)c1OC (stereo not given) | 166 to 167 |
| CCn1c(N)nc2cc(CN3CCN(C(c4ccccc4)c4ccccc4)CC3)ccc21 | 214 |
| C=C1C(=O)OC2C1CCC(C)=CCCC1(C)OC21 (stereo not given) | 112 to 113 |
| Nc1nc(Cl)nc2c1ncn2COCCO | 188 to 190 |
| COc1ccc(-c2nc(C)c(C)s2)cc1 | 166 to 170 |
| COc1ccc(C(=O)c2ccc(OCc3nc(-c4ccccc4)oc3C)cc2)c(OC(F)(F)C(=O)O)c1 | 166 to 167 |
| CCS(=O)(=O)Nc1ccc2[nH]cc(C3=CCN(C)CC3)c2c1 | 224 to 226 |
| CCn1c(=O)c(-c2c(Cl)cccc2Cl)cc2cnc(Nc3ccc(OC)c(OC)c3)nc21 | 221 to 223 |
| O=C1Cn2ncnc2-c2ccccc2N1 | 223 |
| CCOC(=O)Oc1c(OC)cc(C=CC(=O)Nc2cnc3c(C)cc(C)cc3c2-c2ccccc2Cl)cc1OC | 228 to 229 |
| CCOC(=O)c1oc2cccc(OCC(C)O)c2c1C (stereo not given) | 94 to 96 |
| CCCCCCCCCCCCCCCCOC(=O)CCCCCCCCCCCCC | 54 to 56 |
| O=C(OCc1ccccc1Cl)c1ncn2c1[C@@H]1CCCN1C(=O)c1c(Cl)cccc1-2 | 192 to 193 |
| Fc1ccc(F)c(CN2CCNc3ncc(-c4ccc(N5CCOCC5)nc4)cc32)c1 | 206 to 207 |
| COc1cc2oc3ccc(C#N)cc3c2cc1F | 206 to 208 |
| O=C(COc1cc(F)ccc1C(=O)NCc1cccc([N+](=O)[O-])c1)OC1CCCCC1 | 87 to 90 |
| Cc1cc(CCCCCOc2ccc(C3=NCCO3)cc2CO)on1 | 140 to 141 |
| N#CN=c1[nH]c2c([N+](=O)[O-])c(Cl)c(Cl)cc2nc1Cl | 245 to 255 |
| Cc1nc(C)c(C)c(NCCNCC(O)COc2ccccc2)n1 (stereo not given) | 119 to 121 |
| O=C1c2cc(O)ccc2OC12CC2 | 180 to 185 |
| O=C(O)C1CC(c2ccco2)=NN1C(=O)CCS (stereo not given) | 121 to 123 |
| CC1(C)CCC2(CC1S(=O)(=O)c1ccccc1)OCCO2 (stereo not given) | 113 to 115 |

| SMILES | melting point [°C] |
| --- | --- |
| Nc1cccc(-c2nc(-c3cccnc3)no2)c1 | 161 to 163 |
| Cc1ccc(F)cc1C(=O)Nc1ccc(C(=O)N2Cc3ccccc3Oc3ccccc32)cn1 | 180 to 186 |
| O=C(N[C@@H]1CN2C(=O)N(c3cc(Cl)nc(Cl)c3)C(=O)[C@@]2(Cc2ccc(OC(F)(F)F)cc2)C1)c1ccncc1 | 148 |
| Cc1ccc(C)c(-c2sc(NC(=O)[C@@H]3C[C@@H]4CC[C@H]3C4)c(C#N)c2Cl)c1 | 117 to 119 |
| C=CC(=O)Nc1c(C)cccc1C | 144 to 145 |
| Cn1c(C(O)CO)cnc1[N+](=O)[O-] (stereo not given) | 119 to 121 |
| O=Cc1ccc2cccc3c4cccc5cccc(c1c23)c54 | 232 to 234 |
| Cn1nc(Cl)cc(Nc2ccn(C3CN(C(=O)OC(C)(C)C)C3)n2)c1=O | 154 to 156 |
| O=C1NC(=O)C2(c3ccc4ncccc4n3)C=CC=CC12 (stereo not given) | 206 |
| Cn1c([N+](=O)[O-])cnc1C(C)(C)O | 102 to 107 |
| Fc1cc(F)cc(NC(=S)c2ccccn2)c1 | 140 to 142 |
| Cc1nc2c3c(ccn2c1C)C(O)C(O)C(c1ccsc1)N3 (stereo not given) | 134 to 138 |
| O=S(=O)(c1ccccc1)c1cnc2c(N3CCNCC3)cccc2c1 | 164 |
| Cc1cc(Nc2ccccc2C(=O)N2CCCCC2)ccn1 | 93 to 95 |
| CS(=O)(=O)Nc1cc2occ(-n3cccc3)c(=O)c2cc1Oc1ccccc1 | 238 to 240 |
| COc1c(C(C)=O)cnc2c([N+](=O)[O-])cccc12 | 100 to 105 |
| N#CCc1cccc2c(-c3ccc(F)cc3)onc12 | 158 to 160 |
| Nc1ccc(-c2nc3ccc(F)cc3s2)cc1 | 152 to 155 |
| COC(=O)NC(=N)C(C)C | 127 to 130 |
| CC(C)C1C(O)=CC(=O)N1c1ccc(C#N)c(Cl)c1 (stereo not given) | 217 to 219 |
